Laboratory results: EPA's ToxRefDB 2
One block for each compound: values may come before it.

Columns and labels:
[1] = tested on: dog; conditions: Chronic toxicity, beagle, Oral, Feed, dose end: 12 month, group: systemic
[2] = tested on: rat; conditions: Chronic toxicity, wistar, Oral, Feed, dose end: 104 week, group: systemic
[3] = tested on: rat; conditions: Subchronic oral toxicity in rodents, wistar, Feed, dose end: 90 day, group: systemic
[4] = tested on: rabbit; conditions: Prenatal developmental toxicity study, himalayan, Oral, Gavage/Intubation, dose end: 19 GD
[5] = tested on: mouse; conditions: Carcinogenicity, b6c3f1, Oral, [Not Specified], dose end: 78 week, group: systemic
[6] = tested on: rat; conditions: Carcinogenicity, wistar, Oral, Feed, dose end: 104 week, group: systemic
[7] = tested on: dog; conditions: Subchronic oral toxicity in nonrodent, beagle, Feed, dose end: 90 day, group: systemic
[8] = tested on: rabbit; conditions: Prenatal developmental toxicity study, new zealand white, Oral, Capsule, dose end: 18 GD
[9] = tested on: mouse; conditions: Carcinogenicity; other; Oral; Feed; dose end: 18 month; group: systemic; systemic / in life observation / body weight / body weight
[10] = tested on: mouse; conditions: Carcinogenicity; other; Oral; Feed; dose end: 18 month; group: systemic; systemic / in life observation / body weight / body weight; remark: listed apart in the source
[11] = tested on: rat; conditions: Combined chronic toxicity/carcinogenicity, other, Oral, Feed, dose end: 24 month, group: systemic
[12] = tested on: rabbit; conditions: Prenatal developmental toxicity study, new zealand white, Oral, Capsule, dose end: 18 GD; remark: listed apart in the source
[13] = tested on: rat; conditions: Multigenerational reproductive toxicity study, sprague dawley, Oral, Feed, dose end: 2 generation
[14] = tested on: rat; conditions: Peri- and post-natal toxicity study (Segment III), sprague dawley, Oral, Gavage/Intubation, dose end: 54 PND
[15] = tested on: rat; conditions: Other (NonGuideline or Guideline Not Listed), sprague dawley, Oral, Gavage/Intubation, dose end: 20 PND, group: cannot be grouped
[16] = tested on: dog; conditions: Chronic toxicity; beagle; Oral; Feed; dose end: 26 week; group: systemic; systemic / in life observation / body weight / body weight + systemic / clinical chemistry / [other] / [other] + systemic / clinical …
[17] = tested on: dog; conditions: Chronic toxicity, beagle, Oral, Feed, dose end: 12 month
[18] = tested on: mouse; conditions: Carcinogenicity, b6c3f1, Oral, Feed, dose end: 24 month, group: systemic
[19] = tested on: rat; conditions: Combined chronic toxicity/carcinogenicity, other, Oral, Feed, dose end: 106 week
[20] = tested on: rabbit; conditions: Prenatal developmental toxicity study; chinchilla; Oral; Gavage/Intubation; dose end: 18 GD; group: maternal; reproductive / reproductive performance / postimplantation loss / postimplantation loss + systemic / in life observation / body weight / …
[21] = tested on: mouse; conditions: Carcinogenicity, b6c3f1, Oral, Feed, dose end: 103 week, group: systemic
[22] = tested on: mouse; conditions: Subchronic oral toxicity in rodents, b6c3f1, Feed, dose end: 13 week, group: systemic, systemic / in life observation / body weight / body weight
[23] = tested on: rat; conditions: Carcinogenicity; fischer; Oral; Feed; dose end: 103 week; group: systemic; systemic / in life observation / clinical signs / drooping eyelids (ptosis) + systemic / pathology microscopic / adrenal gland / …
[24] = systemic / organ weight / liver / relative to body weight + systemic / pathology microscopic / liver / hemosiderosis + systemic / clinical …
[25] = systemic / clinical chemistry / cholesterol / cholesterol
[26] = systemic / clinical chemistry / cholesterol / cholesterol + systemic / in life observation / body weight / body weight + systemic / in life …
[27] = systemic / clinical chemistry / albumin / albumin + systemic / clinical chemistry / protein / protein
[28] = systemic / organ weight / liver / absolute + systemic / organ weight / liver / relative to body weight + systemic / pathology microscopic / …
[29] = group: developmental, developmental / developmental malformation / bone / full supernumerary + developmental / developmental malformation / bone / fused + …
[30] = group: maternal, systemic / in life observation / body weight / body weight gain + systemic / in life observation / food consumption / food efficiency + …
[31] = systemic / organ weight / kidney / absolute
[32] = systemic / pathology gross / lymph node / enlarged + systemic / pathology gross / spleen / enlarged + systemic / pathology microscopic / …
[33] = systemic / organ weight / liver / relative to body weight + systemic / pathology microscopic / spleen / hemosiderosis + systemic / …
[34] = group: developmental, systemic / in life observation / body weight / fetal weight
[35] = group: maternal, systemic / in life observation / clinical signs / anorexia + systemic / in life observation / clinical signs / no feces + systemic / in life…
[36] = systemic / organ weight / kidney / absolute + systemic / organ weight / kidney / relative to body weight
[37] = group: maternal, systemic / in life observation / clinical signs / anorexia + systemic / pathology gross / stomach / fluid contents + systemic / pathology …
[38] = group: offspring, systemic / in life observation / body weight / offspring (pup) weight + systemic / in life observation / body weight / offspring (pup) …
[39] = group: parental, systemic / in life observation / body weight / body weight + systemic / in life observation / body weight / body weight gain + systemic / in…
[40] = group: parental, systemic / in life observation / body weight / body weight gain
[41] = group: developmental, developmental / developmental landmark / preputial separation / preputial separation
[42] = group: parental, systemic / organ weight / [other] / absolute + systemic / organ weight / adrenal gland / absolute + systemic / organ weight / epididymis / …
[43] = developmental / developmental landmark / preputial separation / preputial separation
[44] = developmental / developmental malformation / general / [other] + developmental / developmental malformation / penis / [other] + …
[45] = group: cholinesterase, cholinesterase / cholinesterase / cholinesterase / erythrocyte cholinesterase (che) + cholinesterase / cholinesterase / cholinesterase / …
[46] = group: systemic, systemic / clinical chemistry / cholesterol / cholesterol
[47] = group: systemic, systemic / clinical chemistry / cholesterol / cholesterol + systemic / in life observation / clinical signs / vomitting
[48] = systemic / clinical chemistry / alanine aminotransferase (alt/sgpt) / alanine aminotransferase (alt/sgpt) + systemic / organ weight / liver…
[49] = systemic / clinical chemistry / protein / protein
[50] = group: cholinesterase, cholinesterase / cholinesterase / cholinesterase / plasma cholinesterase (che) + cholinesterase / cholinesterase / cholinesterase / …
[51] = group: systemic, systemic / in life observation / body weight / body weight + systemic / in life observation / food consumption / food consumption
[52] = group: systemic, systemic / in life observation / body weight / body weight + systemic / in life observation / food consumption / food consumption + systemic…
[53] = systemic / in life observation / body weight / body weight
[54] = systemic / in life observation / body weight / body weight + systemic / pathology microscopic / mammary gland / mixed tumor malignant + …

SMILES: CN1CSC(=S)N(C)C1 [Dazomet]
LOAEL ([1]; systemic / organ weight / liver / relative to body weight + systemic / pathology microscopic / liver / hemosiderosis): 1.12 mg/kg/day
LEL [1, 24]: 1.12 mg/kg/day
NEL [1, 24]: 0.35 mg/kg/day
NOAEL [1, 24]: 0.35 mg/kg/day
LEL [2, 25]: 3.81 mg/kg/day
LOAEL [2, 25]: 3.81 mg/kg/day
NEL [2, 26]: 0.94 mg/kg/day
NOAEL [2, 26]: 0.94 mg/kg/day
LEL [3, 27]: 1.7 mg/kg/day
NEL [3, 27]: < 1.7 mg/kg/day
LOAEL [3, 28]: 4.5 mg/kg/day
NOAEL [3, 28]: 1.5 mg/kg/day
LEL [4, 29]: 45 mg/kg/day
LOAEL [4, 29]: 45 mg/kg/day
NEL [4, 29]: 15 mg/kg/day
NOAEL [4, 29]: 15 mg/kg/day
LOAEL ([4]; group: maternal, systemic / in life observation / body weight / body weight gain + systemic / in life observation / food consumption / food efficiency): 45 mg/kg/day
LEL [4, 30]: 45 mg/kg/day
NEL [4, 30]: 15 mg/kg/day
NOAEL [4, 30]: 15 mg/kg/day
LEL [5, 31]: 3.9 mg/kg/day
NEL [5, 31]: < 3.9 mg/kg/day
LOAEL ([5]; systemic / pathology microscopic / liver / adenoma): 15.6 mg/kg/day
NOAEL ([5]; systemic / pathology microscopic / liver / adenoma + systemic / in life observation / body weight / body weight + systemic / in life …): 3.9 mg/kg/day
LEL ([6]; systemic / pathology gross / lymph node / enlarged + systemic / pathology gross / spleen / enlarged): 0.9 mg/kg/day
LOAEL [6, 32]: > 3.71 mg/kg/day
NEL [6, 32]: 0.2 mg/kg/day
NOAEL [6, 32]: ≥ 3.71 mg/kg/day
LOAEL ([7]; systemic / organ weight / liver / relative to body weight + systemic / pathology microscopic / spleen / hemosiderosis): 7.25 mg/kg/day
LEL [7, 33]: 7.25 mg/kg/day
NEL [7, 33]: 3.5 mg/kg/day
NOAEL [7, 33]: 3.5 mg/kg/day

SMILES: CC(C)([CH2][Sn]([CH2]C(C)(C)c1ccccc1)([CH2]C(C)(C)c1ccccc1)[O][Sn]([CH2]C(C)(C)c1ccccc1)([CH2]C(C)(C)c1ccccc1)[CH2]C(C)(C)c1ccccc1)c1ccccc1 [Fenbutatin oxide]
LEL [8, 34]: 10 mg/kg/day
LOAEL [8, 34]: 10 mg/kg/day
NEL [8, 34]: 5 mg/kg/day
NOAEL [8, 34]: 5 mg/kg/day
LEL [8, 35]: 5 mg/kg/day
LOAEL [8, 35]: 5 mg/kg/day
NEL [8, 35]: 1 mg/kg/day
NOAEL [8, 35]: 1 mg/kg/day
LEL [9]: 45 mg/kg/day
LOAEL [9]: 45 mg/kg/day
NEL [9]: 15 mg/kg/day
NOAEL [9]: 15 mg/kg/day
LEL [10]: 45 mg/kg/day
LOAEL [10]: 45 mg/kg/day
NEL [10]: 15 mg/kg/day
NOAEL [10]: 15 mg/kg/day
LOAEL ([11]; systemic / clinical chemistry / alkaline phosphatase (alp/alk) / alkaline phosphatase (alp/alk)): 15 mg/kg/day
NOAEL ([11]; systemic / clinical chemistry / alkaline phosphatase (alp/alk) / alkaline phosphatase (alp/alk) + systemic / clinical chemistry / urea …): 5 mg/kg/day
LEL [11, 36]: 2.5 mg/kg/day
NEL [11, 36]: < 2.5 mg/kg/day
LEL [12, 34]: 10 mg/kg/day
LOAEL [12, 34]: 10 mg/kg/day
NEL [12, 34]: 5 mg/kg/day
NOAEL [12, 34]: 5 mg/kg/day
LEL [12, 37]: 5 mg/kg/day
LOAEL [12, 37]: 5 mg/kg/day
NEL [12, 37]: 1 mg/kg/day
NOAEL [12, 37]: 1 mg/kg/day
LEL ([13]; group: offspring, systemic / in life observation / body weight / offspring (pup) weight): 5.92 mg/kg/day
LOAEL [13, 38]: 17.4 mg/kg/day
NEL [13, 38]: 3.18 mg/kg/day
NOAEL [13, 38]: 5.2 mg/kg/day
LOAEL [13, 39]: 30 mg/kg/day
NOAEL [13, 39]: 14.8 mg/kg/day
LEL [13, 40]: 2.39 mg/kg/day
NEL [13, 40]: < 2.39 mg/kg/day

LEL [15, 43]: 0.4 mg/kg/day
NEL [15, 43]: < 0.4 mg/kg/day
SMILES: CC(C)C(=O)Nc1ccc([N+](=O)[O-])c(C(F)(F)F)c1 [Flutamide]
LEL [14, 41]: 25 mg/kg/day
LOAEL [14, 41]: > 50 mg/kg/day
NEL [14, 41]: < 25 mg/kg/day
NOAEL [14, 41]: ≥ 50 mg/kg/day
LEL [14, 42]: 25 mg/kg/day
LOAEL [14, 42]: > 50 mg/kg/day
NEL [14, 42]: < 25 mg/kg/day
NOAEL [14, 42]: ≥ 50 mg/kg/day
LOAEL [15, 44]: > 10 mg/kg/day
NOAEL [15, 44]: ≥ 10 mg/kg/day

SMILES: CNC(=O)Oc1ccccc1OC(C)C [Propoxur]
LEL [16]: 1.75 mg/kg/day
LOAEL [16]: > 1.75 mg/kg/day
NEL [16]: < 1.75 mg/kg/day
NOAEL [16]: ≥ 1.75 mg/kg/day
LEL [17, 45]: 781 mg/kg/day
LOAEL [17, 45]: > 781 mg/kg/day
NEL [17, 45]: 186 mg/kg/day
NOAEL [17, 45]: ≥ 781 mg/kg/day
LOAEL [17, 46]: 62.4 mg/kg/day
NOAEL [17, 46]: < 62.4 mg/kg/day
LEL [17, 47]: 62.4 mg/kg/day
NEL [17, 47]: < 62.4 mg/kg/day
LOAEL [18, 48]: 472 mg/kg/day
NOAEL [18, 48]: 114 mg/kg/day
LEL [18, 49]: 150 mg/kg/day
NEL [18, 49]: < 150 mg/kg/day
NEL ([19]; group: cholinesterase, cholinesterase / cholinesterase / cholinesterase / plasma cholinesterase (che)): 50 mg/kg/day
LEL [19, 50]: 250 mg/kg/day
LOAEL [19, 50]: > 250 mg/kg/day
NOAEL [19, 50]: ≥ 250 mg/kg/day
LEL [19, 51]: 10 mg/kg/day
NEL [19, 51]: < 10 mg/kg/day
LOAEL [19, 52]: 250 mg/kg/day
NOAEL [19, 52]: 50 mg/kg/day
LEL [20]: 30 mg/kg/day
LOAEL [20]: 30 mg/kg/day
NEL [20]: 10 mg/kg/day
NOAEL [20]: 10 mg/kg/day

SMILES: COC(=O)[C@H]1[C@H]2C[C@@H]3c4[nH]c5cc(OC)ccc5c4CCN3C[C@H]2C[C@@H](OC(=O)c2cc(OC)c(OC)c(OC)c2)[C@@H]1OC [Reserpine]
LOAEL [21, 53]: 0.75 mg/kg/day
NOAEL [21, 53]: < 0.75 mg/kg/day
LEL [21, 54]: 0.75 mg/kg/day
NEL [21, 54]: < 0.75 mg/kg/day
LEL [22]: 0.06 mg/kg/day
LOAEL [22]: 0.225 mg/kg/day
NEL [22]: < 0.06 mg/kg/day
NOAEL [22]: 0.12 mg/kg/day
LEL [23]: 0.25 mg/kg/day
LOAEL [23]: > 0.5 mg/kg/day
NEL [23]: < 0.25 mg/kg/day
NOAEL [23]: ≥ 0.5 mg/kg/day
